From patent US5200424A, “Use of 10-membered ring lactones as lipid regulators” (priority 1990, dated 1993)

Key:
serum lipoproteins = assay: Lipoprotein fractionation by ultracentrifugation in rats (serum cholesterol, protein, triglycerides; hypolipemic effect); assay type: in vivo, Rat, male, strain: HOE WISKf (SPF 71); conditions: for % Change compared with control, Protein LDL / % Change compared with control, Protein VLDL / % Change compared with control, Total cholesterol HDL / % Change compared with control, Total cholesterol LDL / % Change compared with control, Total cholesterol VLDL / % Change compared with control, Triglycerides VLDL / Cholesterol HDL/LDL Based on control / Cholesterol HDL/LDL: male rat, by gavage; for % Change compared with control, Protein LDL / % Change compared with control, Protein VLDL / % Change compared with control, Total cholesterol HDL / % Change compared with control, Total cholesterol LDL / % Change compared with control, Total cholesterol VLDL / % Change compared with control, Triglycerides VLDL: 7 administrations; for Cholesterol HDL/LDL Based on control: control 1.00; for Cholesterol HDL/LDL: control 3.75
Method: Male rats with an initial weight above 180 g received the test product of the formula I in polyethylene glycol 400 by gavage once a day (in the morning) (0.5 ml/100 g of body weight); the relevant control group received only the same amount of solvent. The last (7th) administration took place 24 hours before blood sampling and sacrifice. There was free access to feed and water during the test. Feed was withdrawn 24 hours before the retroorbital blood sampling, which took place under light ether anesthesia before and after the treatment period (that is to say on the 1st and 8th day). Serum glutamic-oxalate transaminase (SGOT), serum glutamic-pyruvic transaminase (SGPT), alkaline phosphatase (aP), bilirubin and creatinine were determined in the serum of each individual animal. […] Immediately after the blood sampling the animals were sacrificed by distortion of the spinal column. The livers were removed, and the relative liver weight was determined. In addition, the body weight gain and the feed consumption were investigated. The statistical analysis was carried out by Student's t test.
To analyze the serum lipoproteins, after the treatment period the serum of all rats in a group was pooled.

[1] = Body weight, relative liver weight and feed consumption in rats; assay type: in vivo, Rat, male, strain: HOE WISKf (SPF 71)
Method: (§1) Male rats with an initial weight above 180 g received the test product of the formula I in polyethylene glycol 400 by gavage once a day (in the morning) (0.5 ml/100 g of body weight); the relevant control group received only the same amount of solvent. The last (7th) administration took place 24 hours before blood sampling and sacrifice. There was free access to feed and water during the test. Feed was withdrawn 24 hours before the retroorbital blood sampling, which took place under light ether anesthesia before and after the treatment period (that is to say on the 1st and 8th day). Serum glutamic-oxalate transaminase (SGOT), serum glutamic-pyruvic transaminase (SGPT), alkaline phosphatase (aP), bilirubin and creatinine were determined in the serum of each individual animal. The total glycerol was measured from the pooled serum of all animals in a group as measure of the triglycerides (Eggstein, M. Kreutz, F. H.: Klin. Wschr. 44, 262 and 267 (1966); Wahlefeld, A. W., in: H. O. Bergmeier: Methoden der enzymatischen Analyse (Methods of enzymatic analysis), 2nd Edition, Volume II, Verlag Chemie 1974, Page 1878). Immediately after the blood sampling the animals were sacrificed by distortion of the spinal column. The livers were removed, and the relative liver weight was determined. In addition, the body weight gain and the feed consumption were investigated. The statistical analysis was carried out by Student's t test.

[2] = Serum enzymes, bilirubin and creatinine in rats; assay type: in vivo, Rat, male, strain: HOE WISKf (SPF 71)
Method: as §1

[3] = system: cholesterol biosynthesis in HEP-G2 cells; assay: Cholesterol biosynthesis inhibition in HEP-G2 liver cell cultures (14C-acetate); assay type: cell-based; conditions: Homo sapiens, HepG2, 1 h preincubation, 3 h with (14C)acetate, read-out: inhibits biosynthesis by 50% at
Method: (§2) Monolayers of HEP-G2 cells in liproprotein-free nutrient medium are preincubated with appropriate concentrations of the substances of the formula I to be tested for one hour. After addition of the […] biosynthesis precursor sodium (^14 C)acetate the incubation is continued for 3 hours. After this a portion of the cells is subjected to alkaline hydrolysis after addition of an internal standard of ^3 H-cholesterol. The lipids from the hydrolyzed cells are extracted with a chloroform/methanol mixture. This lipid mixture is, after addition of carrier cholesterol, fractionated by preparative thin-layer chromatography, the cholesterol band is stained and then isolated, and the amount of ^14 C-cholesterol formed from the ^14 C-precursor is determined by scintigraphy. Cellular protein was determined in an aliquot of the cells so that the amount of ^14 C-cholesterol formed from ^14 C-precursor per mg of cellular protein per unit time can be calculated. The control is used for comparison for the inhibitory effect of an added test product so that it is possible to state directly the inhibition of the cholesterol biosynthesis at a particular molar concentration of the test product in the medium. The integrity of the cell culture and the absence of cell damage owing to exposure to the product is assessed morphologically (light microscopy) and measured biochemically by determining the lactic dehydrogenase release into the incubation medium on aliquots of the cell culture.

HEP-G2 cells = assay: Integrity of the cell culture / cell damage (light microscopy, lactic dehydrogenase release); assay type: cell-based
Method: as §2, with “The control is used for comparison for the inhibitory effect of an added test product so that it is possible to state directly the inhibition of the cholesterol biosynthesis at a particular molar concentration of the test product in the medium.” left out

[4] = 15 mg/kg/day, male rat, after treatment (8th day)
[5] = 15 mg/kg/day, male rat, before treatment (1st day)
[6] = 15 mg/kg/day, male rat, after treatment

SMILES: CCOC(=O)C(C)(C)Oc1ccc(Cl)cc1 [Clofibrate, clofibrate]
- % Change compared with control, Protein LDL (serum lipoproteins; 100 mg/kg/day): +2%
- % Change compared with control, Protein VLDL (serum lipoproteins; 100 mg/kg/day): +5%
- % Change compared with control, Total cholesterol HDL (serum lipoproteins; 100 mg/kg/day): -26%
- % Change compared with control, Total cholesterol LDL (serum lipoproteins; 100 mg/kg/day): -31%
- % Change compared with control, Total cholesterol VLDL (serum lipoproteins; 100 mg/kg/day): -46%
- % Change compared with control, Triglycerides VLDL (serum lipoproteins; 100 mg/kg/day): +2%
- Cholesterol HDL/LDL Based on control (serum lipoproteins; 100 mg/kg/day): 1.08
- Cholesterol HDL/LDL (serum lipoproteins; 100 mg/kg/day): 4.03
- relative liver weight ([1]; rat, in vivo): increased

SMILES: CC1CC(O)C=CC(O)C(O)CC(=O)O1 (stereo not shown)
- % Change compared with control, Protein LDL (serum lipoproteins; 15 mg/kg/day): -20%
- % Change compared with control, Protein VLDL (serum lipoproteins; 15 mg/kg/day): -12%
- % Change compared with control, Total cholesterol HDL (serum lipoproteins; 15 mg/kg/day): -13%
- % Change compared with control, Total cholesterol LDL (serum lipoproteins; 15 mg/kg/day): -31%
- % Change compared with control, Total cholesterol VLDL (serum lipoproteins; 15 mg/kg/day): -40%
- % Change compared with control, Triglycerides VLDL (serum lipoproteins; 15 mg/kg/day): -22%
- Cholesterol HDL/LDL Based on control (serum lipoproteins; 15 mg/kg/day): 1.26
- Cholesterol HDL/LDL (serum lipoproteins; 15 mg/kg/day): 4.74
- reduction in the triglycerides (mainly transported in the VLDL) (serum lipoproteins; rat): distinct reduction
- vasoprotective index HDL-cholesterol: LDL-cholesterol (serum lipoproteins; rat): significant increase
- reduction in the atherogenic serum lipoproteins LDL and VLDL (cholesterol content) (serum lipoproteins; rat, at one seventh of the dose of clofibrate, compared with clofibrate): equally great reduction
- reduction in the HDL fraction (serum lipoproteins; rat, compared with clofibrate): only half as large
- vasoprotective index HDL-cholesterol: LDL-cholesterol compared with clofibrate (serum lipoproteins; rat, compared with clofibrate): distinctly higher than with clofibrate
- Bilirubin, Final, mean [2, 4]: 2.0 µmol/L
- Creatinine, Final, mean [2, 4]: 64 µmol/L
- Serum enzymes SGOT, Final, mean [2, 4]: 56 U/L
- Serum enzymes SGPT, Final, mean [2, 4]: 25 U/L
- Serum enzymes aP, Final, mean [2, 4]: 247 U/L
- Bilirubin, Initial, mean [2, 5]: 2.8 µmol/L
- Creatinine, Initial, mean [2, 5]: 67 µmol/L
- Serum enzymes SGOT, Initial, mean [2, 5]: 41 U/L
- Serum enzymes SGPT, Initial, mean [2, 5]: 29 U/L
- Serum enzymes aP, Initial, mean [2, 5]: 359 U/L
- tolerability parameters: SGOT, SGPT, aP, serum bilirubin and serum creatinine ([2]; rat): not pathologically changed
- % Change from control, Body weight after [1, 6]: -3%
- % Change from control, rel. feed consumption after [1, 6]: -1%
- IC50 [3]: 100 nM
- cell culture damage (HEP-G2 cells): not damaged
